Data from PubChem BioAssay (NCI).
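Compound exposure: 48 hours, 5 concentrations, 96-well plates. GI50 marks 50% less growth. TGI is the concentration that stops growth completely.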

Columns and labels:
Experiment in all cases: NCI-60 cell line screen, 48 h
[1] = system: 786-0 renal
[2] = system: A498 renal
[3] = system: A549 NSCLC
[4] = system: ACHN renal
[5] = system: BT-549 breast
[6] = system: CAKI-1 renal
[7] = system: CCRF-CEM leukemia
[8] = system: COLO 205 colon
[9] = system: DU-145 prostate
[10] = system: HCC-2998 colon
[11] = system: HCT-116 colon
[12] = system: HCT-15 colon
[13] = system: HL-60(TB) leukemia
[14] = system: HOP-62 NSCLC
[15] = system: HOP-92 NSCLC
[16] = system: HS 578T breast
[17] = system: HT29 colon
[18] = system: IGROV1 ovarian
[19] = system: K-562 leukemia
[20] = system: KM12 colon
[21] = system: LOX IMVI melanoma
[22] = system: M14 melanoma
[23] = system: MALME-3M melanoma
[24] = system: MCF7 breast
[25] = system: MDA-MB-231 breast
[26] = system: MDA-MB-435
[27] = system: MOLT-4 leukemia
[28] = system: NCI-H226 lung
[29] = system: NCI-H23 lung
[30] = system: NCI-H460 lung
[31] = system: NCI-H522 lung
[32] = system: NCI/ADR-RES ovarian
[33] = system: OVCAR-3 ovarian
[34] = system: OVCAR-4 ovarian
[35] = system: OVCAR-5 ovarian
[36] = system: OVCAR-8 ovarian
[37] = system: PC-3 prostate
[38] = system: RPMI-8226 leukemia
[39] = system: RXF 393 renal
[40] = system: SF-268 CNS
[41] = system: SF-295 CNS
[42] = system: SF-539 CNS
[43] = system: SK-MEL-2 melanoma
[44] = system: SK-MEL-28 melanoma
[45] = system: SK-MEL-5 melanoma
[46] = system: SK-OV-3 ovarian
[47] = system: SN12C renal
[48] = system: SNB-19 CNS
[49] = system: SNB-75 CNS
[50] = system: SR leukemia
[51] = system: SW-620 colon
[52] = system: T-47D breast
[53] = system: TK-10 renal
[54] = system: U251 CNS
[55] = system: UACC-257 melanoma
[56] = system: UACC-62 melanoma
[57] = system: UO-31 renal

Structure (SMILES): Cn1cc(C2=C(c3cn(C)c4cc(C(=O)O)ccc34)C(=O)NC2=O)c2ccccc21
- GI50 [1]: > 25 µM
- TGI [1]: > 25 µM
- GI50 [2]: > 12 µM
- TGI [2]: > 25 µM
- GI50 [3]: > 25 µM
- TGI [3]: > 25 µM
- GI50 [4]: > 25 µM
- TGI [4]: > 25 µM
- GI50 [5]: > 25 µM
- TGI [5]: > 25 µM
- GI50 [6]: > 17.2 µM
- TGI [6]: > 25 µM
- GI50 [7]: > 20.4 µM
- TGI [7]: > 25 µM
- GI50 [8]: > 25 µM
- TGI [8]: > 25 µM
- GI50 [9]: > 25 µM
- TGI [9]: > 25 µM
- GI50 [10]: > 25 µM
- TGI [10]: > 25 µM
- GI50 [11]: > 25 µM
- TGI [11]: > 25 µM
- GI50 [12]: > 25 µM
- TGI [12]: > 25 µM
- GI50 [13]: > 25 µM
- TGI [13]: > 25 µM
- GI50 [14]: > 25 µM
- TGI [14]: > 25 µM
- GI50 [15]: > 25 µM
- TGI [15]: > 25 µM
- GI50 [16]: 5.86 µM
- TGI [16]: > 25 µM
- GI50 [17]: > 25 µM
- TGI [17]: > 25 µM
- GI50 [18]: > 25 µM
- TGI [18]: > 25 µM
- GI50 [19]: > 25 µM
- TGI [19]: > 25 µM
- GI50 [20]: > 25 µM
- TGI [20]: > 25 µM
- GI50 [21]: > 13.9 µM
- TGI [21]: > 25 µM
- GI50 [22]: > 25 µM
- TGI [22]: > 25 µM
- GI50 [23]: > 25 µM
- TGI [23]: > 25 µM
- GI50 [24]: > 25 µM
- TGI [24]: > 25 µM
- GI50 [25]: > 25 µM
- TGI [25]: > 25 µM
- GI50 [26]: > 25 µM
- TGI [26]: > 25 µM
- GI50 [27]: > 25 µM
- TGI [27]: > 25 µM
- GI50 [28]: > 25 µM
- TGI [28]: > 25 µM
- GI50 [29]: > 25 µM
- TGI [29]: > 25 µM
- GI50 [30]: > 25 µM
- TGI [30]: > 25 µM
- GI50 [31]: > 12.1 µM
- TGI [31]: > 20.1 µM
- GI50 [32]: > 25 µM
- TGI [32]: > 25 µM
- GI50 [33]: > 25 µM
- TGI [33]: > 25 µM
- GI50 [34]: > 25 µM
- TGI [34]: > 25 µM
- GI50 [35]: > 25 µM
- TGI [35]: > 25 µM
- GI50 [36]: > 25 µM
- TGI [36]: > 25 µM
- GI50 [37]: > 25 µM
- TGI [37]: > 25 µM
- GI50 [38]: > 25 µM
- TGI [38]: > 25 µM
- GI50 [39]: > 19.8 µM
- TGI [39]: > 25 µM
- GI50 [40]: > 25 µM
- TGI [40]: > 25 µM
- GI50 [41]: > 25 µM
- TGI [41]: > 25 µM
- GI50 [42]: > 25 µM
- TGI [42]: > 25 µM
- GI50 [43]: > 15.5 µM
- TGI [43]: 25 µM
- GI50 [44]: > 25 µM
- TGI [44]: > 25 µM
- GI50 [45]: > 25 µM
- TGI [45]: > 25 µM
- GI50 [46]: > 25 µM
- TGI [46]: > 25 µM
- GI50 [47]: > 25 µM
- TGI [47]: > 25 µM
- GI50 [48]: > 25 µM
- TGI [48]: > 25 µM
- GI50 [49]: 4.96 µM
- TGI [49]: > 25 µM
- GI50 [50]: > 13.4 µM
- TGI [50]: > 25 µM
- GI50 [51]: > 25 µM
- TGI [51]: > 25 µM
- GI50 [52]: 21.1 µM
- TGI [52]: > 25 µM
- GI50 [53]: > 25 µM
- TGI [53]: > 25 µM
- GI50 [54]: > 25 µM
- TGI [54]: > 25 µM
- GI50 [55]: > 25 µM
- TGI [55]: > 25 µM
- GI50 [56]: > 25 µM
- TGI [56]: > 25 µM
- GI50 [57]: > 25 µM
- TGI [57]: > 25 µM
